Results from patent US9694016B2 (Novartis AG, priority 2013, dated 2017).

Molecular target: b-Raf (V600E) (Homo sapiens (Human), UniProt P15056, V600E)
Conditions: read-out: b-Raf IC-50; AlphaScreen, 60 min pre-incubation, 3 hours reaction

Sequence of b-Raf (V600E) (P15056 whole entry V600E): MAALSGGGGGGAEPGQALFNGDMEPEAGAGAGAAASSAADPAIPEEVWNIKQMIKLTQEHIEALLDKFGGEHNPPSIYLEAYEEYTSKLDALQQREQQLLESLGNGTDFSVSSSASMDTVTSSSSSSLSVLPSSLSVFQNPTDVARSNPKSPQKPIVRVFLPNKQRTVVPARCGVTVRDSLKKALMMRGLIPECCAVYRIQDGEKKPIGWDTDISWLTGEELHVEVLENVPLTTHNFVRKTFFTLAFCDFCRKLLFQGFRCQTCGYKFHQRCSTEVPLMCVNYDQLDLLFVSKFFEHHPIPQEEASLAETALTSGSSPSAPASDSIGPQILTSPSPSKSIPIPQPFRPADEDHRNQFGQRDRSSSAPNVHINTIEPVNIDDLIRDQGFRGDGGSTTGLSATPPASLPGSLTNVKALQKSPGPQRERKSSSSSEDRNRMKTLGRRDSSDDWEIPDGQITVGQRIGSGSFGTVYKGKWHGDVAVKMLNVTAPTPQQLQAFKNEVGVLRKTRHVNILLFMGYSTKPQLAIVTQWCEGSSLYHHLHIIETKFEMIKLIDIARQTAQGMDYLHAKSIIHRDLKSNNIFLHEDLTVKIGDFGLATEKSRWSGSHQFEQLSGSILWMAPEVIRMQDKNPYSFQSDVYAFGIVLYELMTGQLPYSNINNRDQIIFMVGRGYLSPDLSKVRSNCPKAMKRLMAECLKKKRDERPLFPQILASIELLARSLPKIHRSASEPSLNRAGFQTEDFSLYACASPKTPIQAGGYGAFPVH

Row | SMILES | IC50
1 | Cc1ncc(NC(=O)c2ccnc(C(C)(C)C#N)c2)cc1-c1cc(N2CCOCC2)nc(NC[C@@H](C)O)n1 [Example 742, (R)-2-(2-cyanopropan-2-yl)-N-(5-(2-((2-hydroxypropyl)amino)-6-morpholinopyrimidin-4-yl)-6-methylpyridin-3-yl)isonicotinamide] | 38.6 nM
2 | Cc1ncc(NC(=O)c2ccnc(C(C)(C)C#N)c2)cc1-c1cc(N2CCOCC2)nc(N[C@@H](C)CO)n1 [Example 744, (S)-2-(2-cyanopropan-2-yl)-N-(5-(2-((1-hydroxypropan-2-yl)amino)-6-morpholinopyrimidin-4-yl)-6-methylpyridin-3-yl)isonicotinamide] | 42.7 nM
3 | Cc1ncc(NC(=O)c2cccc(C(F)(F)F)c2)cc1-c1cc(N2CCOCC2)nc(N[C@@H](C)CO)n1 [Example 745, (S)—N-(5-(2-((1-hydroxypropan-2-yl)amino)-6-morpholinopyrimidin-4-yl)-6-methylpyridin-3-yl)-3-(trifluoromethyl)benzamide] | 3.6 nM
4 | Cc1ncc(NC(=O)c2ccnc(C(C)(C)C#N)c2)cc1-c1cc(N2CCOCC2)nc(N[C@H](C)CO)n1 [Example 747, (R)-2-(2-cyanopropan-2-yl)-N-(5-(2-((1-hydroxypropan-2-yl)amino)-6-morpholinopyrimidin-4-yl)-6-methylpyridin-3-yl)isonicotinamide] | 19 nM
5 | Cc1ncc(NC(=O)c2cccc(C(F)(F)F)c2)cc1-c1cc(N2CCOCC2)nc(N[C@H](C)CO)n1 [Example 748, (R)—N-(5-(2-((1-hydroxypropan-2-yl)amino)-6-morpholinopyrimidin-4-yl)-6-methylpyridin-3-yl)-3-(trifluoromethyl)benzamide] | 1.9 nM
6 | Cc1ncc(NC(=O)c2ccnc(C(C)(C)C#N)c2)cc1-c1cc(N2CCOCC2)nc(NC(C)(C)CO)n1 [Example 750, 2-(2-cyanopropan-2-yl)-N-(5-(2-((1-hydroxy-2-methylpropan-2-yl)amino)-6-morpholinopyrimidin-4-yl)-6-methylpyridin-3-yl)isonicotinamide] | 22.4 nM
7 | Cc1ncc(NC(=O)c2cccc(C(F)(F)F)c2)cc1-c1cc(N2CCOCC2)nc(NC(C)(C)CO)n1 [Example 752, N-(5-(2-((1-hydroxy-2-methylpropan-2-yl)amino)-6-morpholinopyrimidin-4-yl)-6-methylpyridin-3-yl)-3-(trifluoromethyl)benzamide] | 1.8 nM
8 | Cc1ncc(NC(=O)c2ccnc(C(C)(C)C#N)c2)cc1-c1cc(N2CCOCC2)nc(NC2(CO)CCOCC2)n1 [Example 753, 2-(2-cyanopropan-2-yl)-N-(5-(2-((4-(hydroxymethyl)tetrahydro-2H-pyran-4-yl)amino)-6-morpholinopyrimidin-4-yl)-6-methylpyridin-3-yl)isonicotinamide] | 30.9 nM
9 | Cc1ccc(NC(=O)c2ccnc(C(C)C)c2)cc1-c1cc(N2CCOCC2)nc(N(C)C)n1 [Example 757, N-(3-(2-(dimethylamino)-6-morpholinopyrimidin-4-yl)-4-methylphenyl)-2-isopropylisonicotinamide] | 1.4 nM
10 | Cc1ccc(NC(=O)c2ccnc(C(F)(F)F)c2)cc1-c1cc(N2CCOCC2)nc(N(C)C)n1 [Example 758, N-(3-(2-(dimethylamino)-6-morpholinopyrimidin-4-yl)-4-methylphenyl)-2-(trifluoromethyl)isonicotinamide] | 2.8 nM
11 | Cc1ccc(NC(=O)c2ccnc(S(C)(=O)=O)c2)cc1-c1cc(N2CCOCC2)nc(N(C)C)n1 [Example 759, N-(3-(2-(dimethylamino)-6-morpholinopyrimidin-4-yl)-4-methylphenyl)-2-(methylsulfonyl)isonicotinamide] | 11.5 nM
12 | Cc1ncc(NC(=O)c2cccc(C(F)(F)F)c2)cc1-c1cc(N2CCOCC2)nc(N(C)C)n1 [Example 760, N-(5-(2-(dimethylamino)-6-morpholinopyrimidin-4-yl)-6-methylpyridin-3-yl)-3-(trifluoromethyl)benzamide] | 11.3 nM
13 | CCOc1nc(-c2cc(NC(=O)c3ccnc(C(C)(F)F)c3)ccc2C)cc(N2CCOCC2)n1 [Example 761, 2-(1,1-difluoroethyl)-N-(3-(2-ethoxy-6-morpholinopyrimidin-4-yl)-4-methylphenyl)isonicotinamide] | 0.9 nM
14 | CCOc1nc(-c2cc(NC(=O)c3ccnc(C(F)(F)F)c3)ccc2C)cc(N2CCOCC2)n1 [Example 762, N-(3-(2-ethoxy-6-morpholinopyrimidin-4-yl)-4-methylphenyl)-2-(trifluoromethyl)isonicotinamide] | 0.7 nM
15 | Cc1ncc(NC(=O)c2cccc(C(F)(F)F)c2)cc1-c1cc(N2CCOCC2)nc(N2CC(O)C2)n1 [Example 768, N-(5-(2-(3-hydroxyazetidin-1-yl)-6-morpholinopyrimidin-4-yl)-6-methylpyridin-3-yl)-3-(trifluoromethyl)benzamide] | 11.1 nM
16 | Cc1ncc(NC(=O)c2cccc(C(F)F)c2)cc1-c1cc(N2CCOCC2)nc(N2CC(O)C2)n1 [Example 770, 3-(difluoromethyl)-N-(5-(2-(3-hydroxyazetidin-1-yl)-6-morpholinopyrimidin-4-yl)-6-methylpyridin-3-yl)benzamide] | 5.3 nM
17 | Cc1ncc(NC(=O)c2cccc(C(F)(F)F)c2)cc1-c1cc(N2CCOCC2)nc(N2CCNCC2)n1 [Example 775, N-(6-methyl-5-(6-morpholino-2-(piperazin-1-yl)pyrimidin-4-yl)pyridin-3-yl)-3-(trifluoromethyl)benzamide] | 20 nM
18 | Cc1ncc(NC(=O)c2cccc(C(F)(F)F)c2)cc1-c1cc(N2CCOCC2)nc(OC2CNC2)n1 [Example 776, N-(5-(2-(azetidin-3-yloxy)-6-morpholinopyrimidin-4-yl)-6-methylpyridin-3-yl)-3-(trifluoromethyl)benzamide] | 25000 nM
19 | Cc1ccc(NC(=O)c2ccnc(C(C)C)c2)cc1-c1cc(N2CCOCC2)nc(OC2CNC2)n1 [Example 778, N-(3-(2-(azetidin-3-yloxy)-6-morpholinopyrimidin-4-yl)-4-methylphenyl)-2-isopropylisonicotinamide] | 2.3 nM

Further lines, results first:

Row | IC50 | SMILES
20 | 4.6 nM | Cc1ccc(NC(=O)c2ccnc(C(C)(C)C#N)c2)cc1-c1cc(N2CCOCC2)nc(N[C@@H](C)CO)n1 [Example 746]
21 | 1.9 nM | Cc1ccc(NC(=O)c2ccnc(C(C)(C)C#N)c2)cc1-c1cc(N2CCOCC2)nc(N[C@H](C)CO)n1 [Example 749, (R)-2-(2-cyanopropan-2-yl)-N-(3-(2-((1-hydroxypropan-2-yl)amino)-6-morpholinopyrimidin-4-yl)-4-methylphenyl)isonicotinamide]
22 | 1.4 nM | Cc1ccc(NC(=O)c2ccnc(C(C)(C)C#N)c2)cc1-c1cc(N2CCOCC2)nc(NC(C)(C)CO)n1 [Example 751, 2-(2-cyanopropan-2-yl)-N-(3-(2-((1-hydroxy-2-methylpropan-2-yl)amino)-6-morpholinopyrimidin-4-yl)-4-methylphenyl)isonicotinamide]
23 | 3.4 nM | Cc1ccc(NC(=O)c2ccnc(C(C)(C)C#N)c2)cc1-c1cc(N2CCOCC2)nc(NC2(CO)CCOCC2)n1 [Example 754, 2-(2-cyanopropan-2-yl)-N-(3-(2-((4-(hydroxymethyl)tetrahydro-2H-pyran-4-yl)amino)-6-morpholinopyrimidin-4-yl)-4-methylphenyl)isonicotinamide]
24 | 17.8 nM | Cc1ccc(NC(=O)c2ccnc(C(C)(C)C#N)c2)cc1-c1cc(N2CCOCC2)nc(N(C)C)n1 [Example 755, 2-(2-cyanopropan-2-yl)-N-(3-(2-(dimethylamino)-6-morpholinopyrimidin-4-yl)-4-methylphenyl)isonicotinamide]
25 | 4.2 nM | Cc1ccc(NC(=O)c2ccnc(C(C)(F)F)c2)cc1-c1cc(N2CCOCC2)nc(N(C)C)n1 [Example 756, 2-(1,1-difluoroethyl)-N-(3-(2-(dimethylamino)-6-morpholinopyrimidin-4-yl)-4-methylphenyl)isonicotinamide]
26 | 3.4 nM | CCOc1nc(-c2cc(NC(=O)c3ccnc(C(C)(C)C#N)c3)ccc2C)cc(N2CCOCC2)n1 [Example 764, 2-(2-cyanopropan-2-yl)-N-(3-(2-ethoxy-6-morpholinopyrimidin-4-yl)-4-methylphenyl)isonicotinamide]
27 | 1 nM | Cc1ccc(NC(=O)c2cccc(C(F)(F)F)c2)cc1-c1cc(N2CCOCC2)nc(N2CC(O)C2)n1 [Example 765, N-(3-(2-(3-hydroxyazetidin-1-yl)-6-morpholinopyrimidin-4-yl)-4-methylphenyl)-3-(trifluoromethyl)benzamide]
28 | 1.8 nM | Cc1ccc(C(=O)Nc2cccc(C(F)(F)F)c2)cc1-c1cc(N2CCOCC2)nc(N2CC(O)C2)n1 [Example 766, 3-(2-(3-hydroxyazetidin-1-yl)-6-morpholinopyrimidin-4-yl)-4-methyl-N-(3-(trifluoromethyl)phenyl)benzamide]
29 | 47.4 nM | Cc1ncc(NC(=O)c2ccnc(C(C)(C)C#N)c2)cc1-c1cc(N2CCOCC2)nc(N2CC(O)C2)n1 [Example 767, 2-(2-cyanopropan-2-yl)-N-(5-(2-(3-hydroxyazetidin-1-yl)-6-morpholinopyrimidin-4-yl)-6-methylpyridin-3-yl)isonicotinamide]
30 | 10.2 nM | Cc1ccc(NC(=O)c2ccnc(C(C)(C)C#N)c2)cc1-c1cc(N2CCOCC2)nc(N2CC(O)C2)n1 [Example 769]
31 | 2.5 nM | Cc1ccc(NC(=O)c2ccnc(C(C)C)c2)cc1-c1cc(N2CCOCC2)nc(N2CC(O)C2)n1 [Example 771, N-(3-(2-(3-hydroxyazetidin-1-yl)-6-morpholinopyrimidin-4-yl)-4-methylphenyl)-2-isopropylisonicotinamide]
32 | 1.9 nM | Cc1ccc(NC(=O)c2ccnc(C(C)(F)F)c2)cc1-c1cc(N2CCOCC2)nc(N2CC(O)C2)n1 [Example 772, 2-(1,1-difluoroethyl)-N-(3-(2-(3-hydroxyazetidin-1-yl)-6-morpholinopyrimidin-4-yl)-4-methylphenyl)isonicotinamide]
33 | 1.7 nM | Cc1ccc(NC(=O)c2ccnc(C(F)(F)F)c2)cc1-c1cc(N2CCOCC2)nc(N2CC(O)C2)n1 [Example 773, N-(3-(2-(3-hydroxyazetidin-1-yl)-6-morpholinopyrimidin-4-yl)-4-methylphenyl)-2-(trifluoromethyl)isonicotinamide]
